According to patent US20180117110A1, “METHOD OF TREATING CANCER” (THE WALTER AND ELIZA HALL INSTITUTE OF MEDICAL RESEARCH, priority 2014, published 2018):

Experiments:
[1] = tested on: human AML patient samples; experiment: Response of human AML patient samples to Birinapant in vitro; format: cell-based
[2] = tested on: advanced solid tumours and lymphoma; details: intravenous administration, Phase I; cited from earlier work
[3] = tested on: Bone Marrow Derived Macrophages (BMDM); experiment: BMDM cell viability (CellTiter-Glo) after SMAC mimetic Compound A ± p38 or MK2 inhibitor; format: cell-based, mouse; details: inhibitor 30 min then 500 nM Compound A, 24 h, dose dependent (FIG. 1C)
Procedure: FIG. 1: p38 inhibitors increase TNFα production and cell death induced by SMAC mimetics. A. Bone Marrow Derived Macrophages (BMDM) were pretreated ±1 μM of the indicated p38 inhibitors for 30 min then treated with 500 nM of SMAC mimetic Compound A (CompA) for 24 h. TNFα production was measured by ELISA of supernatants. B. BMDM were pretreated 500 nM of SMAC mimetic Compound A, GT13072 or birinapant ±1 μM of LY2228820. TNFα production was measured by ELISA of supernatants. N=3 biological repeats and error bars are SEM. C. BMDM were pretreated ± the indicated dose of MK2 inhibitor PF-3644022 and the p38 inhibitor LY2228820, VX-702, TAK-715 or VX-745 for 30 min then treated with 500 nM of SMAC mimetic Compound A. Cell viability was measured after 24 h of treatment using CellTiter-Glo® (CTG) reagent. N=3 biological repeats and error bars are SEM.
BMDMs from C56/B16, p38α^LysMCre or Mk2^−/− were cultured for 6 days in DMEM+10% FBS (v/v)+20% L929 mouse fibroblasts (a source of macrophage colony stimulating factor), plated and assayed the following day. BMDMs cells were seeded and assayed in the presence of L929 conditioned medium. AML cells were cultured in IMDM +10% FBS (v/v)+2.5 ng/ml of IL-3. NCI-H929 cells were cultured in RPMI+10% FBS (v/v). Cell suspension from breast ER+ patient derived tumours was cultured in mammosphere media. After treatment with SMAC mimetic with or without kinases inhibitors cell viability was measured by staining with propidium iodide (2 μg/mL) or by using CellTiter-Glo® (Promega).

[4] = tested on: low- and intermediate-1-risk Myelodysplastic syndromes; details: oral administration, Phase I/II; cited from earlier work
[5] = tested on: Bone Marrow Derived Macrophages (BMDM); experiment: TNFα production by ELISA of supernatants of BMDM treated with SMAC mimetic ± p38 inhibitors (kinase inhibitors screen); format: cell-based, mouse; details: 500 nM SMAC mimetic ± 1 μM LY2228820 (FIG. 1B)
Procedure: FIG. 1: p38 inhibitors increase TNFα production and cell death induced by SMAC mimetics. A. Bone Marrow Derived Macrophages (BMDM) were pretreated ±1 μM of the indicated p38 inhibitors for 30 min then treated with 500 nM of SMAC mimetic Compound A (CompA) for 24 h. TNFα production was measured by ELISA of supernatants. B. BMDM were pretreated 500 nM of SMAC mimetic Compound A, GT13072 or birinapant ±1 μM of LY2228820. TNFα production was measured by ELISA of supernatants. N=3 biological repeats and error bars are SEM. C. BMDM were pretreated ± the indicated dose of MK2 inhibitor PF-3644022 and the p38 inhibitor LY2228820, VX-702, TAK-715 or VX-745 for 30 min then treated with 500 nM of SMAC mimetic Compound A. Cell viability was measured after 24 h of treatment using CellTiter-Glo® (CTG) reagent. N=3 biological repeats and error bars are SEM. BMDMs from C56/B16, p38α^LysMCre or Mk2^−/− were cultured for 6 days in DMEM+10% FBS (v/v)+20% L929 mouse fibroblasts (a source of macrophage colony stimulating factor), plated and assayed the following day. BMDMs cells were seeded and assayed in the presence of L929 conditioned medium. AML cells were cultured in IMDM +10% FBS (v/v)+2.5 ng/ml of IL-3. […] After treatment with SMAC mimetic with or without kinases inhibitors cell viability was measured by staining with propidium iodide (2 μg/mL) or by using CellTiter-Glo® (Promega). […]

C57BL6 mice = experiment: Tolerability of SMAC mimetic plus p38 inhibitor in non tumour-bearing mice; format: in vivo; details: 5 mg/kg GT13072 + 15 mg/kg LY2228820 i.p. (FIG. 7C)
Procedure: FIG. 7: Mice tolerate administration of birinapant plus p38 inhibitor. A. Mononuclear cells isolated from healthy donor by Ficoll sedimentation were treated for 48 h with indicated drugs. CD34^+ cell death was measured by staining with PI and flow cytometry. For each donor sample, graphs show mean of at least n=2 technical replicates across n=2-5 independent experiments. B and C. C57BL/6 mice were intra-peritoneally injected with vehicle (captisol 6%) or birinapant (B) or GT13072 (C) or LY2228820 or combination of LY2228820 and SM at indicated concentration. Mice received 8 injections twice a week over 4 weeks. Mice were euthanised 2 weeks after the treatment stopped. Graphs show organs, body weights and blood cell populations with 6 mice/group (B), 4 mice/group (C). Error bars are SEM.
To assess the safety of SMAC mimetic plus p38 inhibitor C57BL6 mice were injected by intra-peritoneal route twice a week for 4 weeks with either vehicle (6% Captisol) or 15 mg/kg of LY222820 or 5 mg/kg birinapant ±15 mg/kg LY2228820, or 10 mg/kg birinapant±15 mg/kg LY2228820. Another cohort received either vehicle or 5 mg/kg of GT13072, or 15 mg/kg of LY222820 or combination.
200 μL of blood was collected from the retro-orbital plexus into tubes containing potassium ethylenediaminetetraacetic acid (Sarstedt) and analyzed in an Advia 2120 automated hematologic analyzer (Bayer).

SMILES: CC[C@H](NC(=O)[C@H](C)NC)C(=O)N1C[C@@H](O)C[C@H]1Cc1c(-c2[nH]c3cc(F)ccc3c2C[C@@H]2C[C@H](O)CN2C(=O)[C@H](CC)NC(=O)[C@H](C)NC)[nH]c2cc(F)ccc12 [Birinapant]
- response of human AML patient samples to single agent treatment [1]: some human AML patient samples did not respond
- anti-tumour activity in patients [2]: evidence of anti-tumour activity
- tolerability in patients [2]: well tolerated with no dose-limiting toxicities

SMILES: CCc1nc(-c2cccc(C)c2)c(-c2ccnc(NC(=O)c3ccccc3)c2)s1 [TAK-715]
- cell death induced by SMAC mimetics [3]: dramatically increased cell death

SMILES: O=c1ncn2nc(Sc3ccc(F)cc3F)ccc2c1-c1c(Cl)cccc1Cl [VX-745]
- cell death induced by SMAC mimetics [3]: dramatically increased cell death

SMILES: C[C@@H]1CN(Cc2ccc(F)cc2)[C@@H](C)CN1C(=O)c1cc2c(C(=O)C(=O)N(C)C)cn(C)c2cc1Cl [Talmapimod]
- complete remission [4]: only one patient achieved a complete remission
- tolerability in patients [4]: well tolerated

SMILES: CC(C)(C)Cn1c(N)nc2ccc(-c3[nH]c(C(C)(C)C)nc3-c3ccc(F)cc3)nc21 [LY2228820]
- TNF production of three different smac-mimetics (CompA, GT13072 and birinapant) [5]: increased TNF production
- cell death induced by SMAC mimetics [3]: dramatically increased cell death
- effect of LY2228820 on populations of white blood cells (ADVIA analysis) (C57BL6 mice): nor affect the populations of white blood cells
- effect of LY2228820 on the splenomegaly induced by GT13072 (C57BL6 mice): did not even exacerbate the splenomegaly

SMILES: Cc1ccc(-c2ccc3c(ccc4sc5c(c43)NC[C@@H](C)NC5=O)n2)cn1 [PF-3644022]
- cell death induced by SMAC mimetics [3]: dramatically increased cell death

SMILES: NC(=O)c1ccc(N(C(N)=O)c2c(F)cccc2F)nc1-c1ccc(F)cc1F [VX-702]
- cell death induced by SMAC mimetics [3]: dramatically increased cell death
